{
  "source": "patent US6849728B1",
  "about": "“GLUT10: a glucose transporter in the type 2 diabetes linked region of chromosome 20Q12-13.1” (Wake Forest University Health Sciences, priority 2000, dated 2005)",
  "molecules": {"B1": {"name": "human GLUT10 (Homo sapiens) (protein)", "chain": "MGHSPPVLPLCASVSLLGGLTFGYELAVISGALLPLQLDFGLSCLEQEFLVGSLLLGALLASLVGGFLIDCYGRKQAILGSNLVLLAGSLTLGLAGSLAWLVLGRAVVGFAISLSSMACCIYVSELVGPRQRGVLVSLYEAGITVGILLSYALNYALAGTPWGWRHMFGWATAPAVLQSLSLLFLPAGTDETATHKDLIPLQGGEAPKLGPGRPRYSFLDLFRARDNMRGRTTVGLGLVLFQQLTGQPNVLCYASTIFSSVGFHGGSSAVLASVGLGAVKVAATLTAMGLVDRAGRRALLLAGCALMALSVSGIGLVSFAVPMDSGPSCLAVPNATGQTGLPGDSGLLQDSSLPPIPRTNEDQREPILSTAKKTKPHPRSGDPSAPPRLALSSALPGPPLPARGHALLRWTALLCLMVFVSAFSFGFGPVTWLVLSEIYPVEIRGRAFAFCNSFNWAANLFISLSFLDLIGTIGLSWTFLLYGLTAVLGLGFIYLFVPETKGQSLAEIDQQFQKRRFTLSFGHRQNSTGIPYSRIEISAAS"}},
  "key": {"human GLUT10": {"biological_target": "T1, human GLUT10 (Homo sapiens, UniProt O95528)", "T1 construct": "A full-length GLUT10 cDNA was cloned into the expression vector pCMV-Tag4a (Stratagene); expressed in transfected cells; host or cells: Xenopus laevis oocytes injected with capped mRNA", "T1 sequence (O95528 1-541)": "B1 chain", "test": "2-DOG uptake in Xenopus oocytes injected with GLUT10 RNA", "format": "cell-based", "conditions": "for effect of competitors on [3H]2-DOG uptake: 100-fold excess: 25 mM competitor", "source_text": "(§1) Material and Methods. A full-length GLUT10 cDNA was cloned into the expression vector pCMV-Tag4a (Stratagene). A PCR-based strategy employing Pfu polymerase was used for site-directed mutagenesis to generate the GLUT10 single nucleotide polymorpisms. The PCR products were digested with Eco RI, subcloned into pCMV-Tag4a, and the complete insert was sequenced to confirm the identity of the A206T and A287T GLUT10 glucose transporter cDNAs. The pcDNA3.1/GS plasmids expressing the full-length GLUT3 and GLUT4 cDNA were purchased from Invitrogen Corporation. Capped mRNA was generated using the mMESSAGE mMACHINE™ transcription kit (Ambion Inc).\nAdult female Xenopus laevis were obtained from Xenopus Express (Homosassa, Fla.) and housed at 17-19° C. on a twelve-hour light/dark cycle. Stage V-VI oocytes were removed from anesthetized frogs and placed in isolation media (108 mM NaCl, 1 mM EDTA, 2 mM KCl, 10 mM HEPES, pH 7.5). The oocyte follicular layer was removed by immersion in 0.5 mg/ml collagenase buffer (83 mM NaCl, 2 mM KCl, 1 mM MgCl2, and 5 mM HEPES, pH 7.5). Isolated oocytes were maintained in modified Barth's saline (MBS; 88 mM NaCl, 1 mM KCl, 10 mM HEPES, 0.82 mM MgSO4, 2.4 mM NaHCO3, 0.91 mM CaCl2, and 0.33 mM Ca(NO3)2, pH 7.5). Visually healthy oocytes were injected with 30 nl of either a mRNA solution (1.0 μg/μl) or sterile water at the interface between the animal and vegetal poles. Individual oocytes were placed in 96-well microtiter plates (Costar Corporation) containing MBS plus 2 mM sodium pyruvate, 0.5 mM theophylline, 10 U/ml penicillin, 10 mg/l streptomycin and 50 mg/] gentamycin (Sigma) at 22° C.\nDOG (final specific activity=0.5 Ci/mmol) (NEN Life Science Products, Inc.; American Radiochemical Company). Competitors, inhibitors, or insulin were added to the incubation as indicated. Uptake was terminated by removal of the radioactive solution and three 500 μl washes with ice-cold MBS containing 0.1 mM phloretin (Sigma). Pools of oocytes were dissolved in 10% SDS, mixed with scintillation fluid, and internalized radioactivity was measured by scintillation spectrometry using a Beckman LS-600 scintillation counter. Data are expressed as the arithmetic mean or median of duplicate or triplicate pools of 4 to 12 oocytes at each data point. Transport kinetics were analyzed by best-fit analysis of data points (Cricket Graph, Computer Associates) and Eadie-Hofstee transformation."}, "GLUT10 A206T": {"biological_target": "T2, GLUT10 A206T (Homo sapiens, UniProt O95528, A206T)", "T2 construct": "A full-length GLUT10 cDNA was cloned into the expression vector pCMV-Tag4a (Stratagene); expressed in transfected cells; host or cells: Xenopus laevis oocytes injected with capped mRNA", "T2 sequence (O95528 1-541 A206T)": "B1 chain with A206T", "test": "2-DOG uptake in Xenopus oocytes expressing GLUT10 A206T isoform", "format": "cell-based", "conditions": "pre-incubation with insulin", "source_text": "as §1\n(§2) Adult female Xenopus laevis were obtained from Xenopus Express (Homosassa, Fla.) and housed at 17-19° C. on a twelve-hour light/dark cycle. […]\n(§3) DOG (final specific activity=0.5 Ci/mmol) (NEN Life Science Products, Inc.; American Radiochemical Company). […] Pools of oocytes were dissolved in 10% SDS, mixed with scintillation fluid, and internalized radioactivity was measured by scintillation spectrometry using a Beckman LS-600 scintillation counter. Data are expressed as the arithmetic mean or median of duplicate or triplicate pools of 4 to 12 oocytes at each data point. Transport kinetics were analyzed by best-fit analysis of data points (Cricket Graph, Computer Associates) and Eadie-Hofstee transformation. […]"}, "GLUT10 A28T": {"biological_target": "T3, GLUT10 A28T (Homo sapiens, UniProt O95528, A287T)", "T3 construct": "A full-length GLUT10 cDNA was cloned into the expression vector pCMV-Tag4a (Stratagene); expressed in transfected cells; host or cells: Xenopus laevis oocytes injected with capped mRNA", "T3 sequence (O95528 1-541 A287T)": "B1 chain with A287T", "test": "2-DOG uptake in Xenopus oocytes expressing GLUT10 A28T isoform", "format": "cell-based", "conditions": "pre-incubation with insulin", "source_text": "as §1, §2, §3"}, "human GLUT4": {"biological_target": "T4, human GLUT4 (Homo sapiens, UniProt P14672)", "T4 construct": "The pcDNA3.1/GS plasmids expressing the full-length GLUT3 and GLUT4 cDNA were purchased from Invitrogen Corporation; host or cells: Xenopus laevis oocytes injected with capped mRNA", "T4 sequence (P14672 1-509)": "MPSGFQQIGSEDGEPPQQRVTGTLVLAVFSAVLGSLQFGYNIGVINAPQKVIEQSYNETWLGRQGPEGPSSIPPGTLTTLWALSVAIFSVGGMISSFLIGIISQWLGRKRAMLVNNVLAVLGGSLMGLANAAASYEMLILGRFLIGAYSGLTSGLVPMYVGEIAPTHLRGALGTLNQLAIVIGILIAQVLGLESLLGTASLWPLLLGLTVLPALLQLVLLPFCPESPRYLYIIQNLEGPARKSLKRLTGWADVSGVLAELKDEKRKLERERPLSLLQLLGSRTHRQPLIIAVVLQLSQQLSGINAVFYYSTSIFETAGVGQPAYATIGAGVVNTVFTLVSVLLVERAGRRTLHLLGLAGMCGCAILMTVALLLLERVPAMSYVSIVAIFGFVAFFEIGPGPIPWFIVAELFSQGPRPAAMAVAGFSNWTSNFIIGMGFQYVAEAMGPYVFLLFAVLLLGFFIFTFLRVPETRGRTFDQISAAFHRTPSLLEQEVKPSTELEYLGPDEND", "test": "2-DOG uptake in Xenopus oocytes injected with GLUT4 RNA", "format": "cell-based", "conditions": "pre-incubation with 100 μM insulin for 30 min, 250 μM [3H]2-DOG", "source_text": "as §1, §2\nDOG (final specific activity=0.5 Ci/mmol) (NEN Life Science Products, Inc.; American Radiochemical Company). […] Pools of oocytes were dissolved in 10% SDS, mixed with scintillation fluid, and internalized radioactivity was measured by scintillation spectrometry using a Beckman LS-600 scintillation counter. Data are expressed as the arithmetic mean or median of duplicate or triplicate pools of 4 to 12 oocytes at each data point. Transport kinetics were analyzed by best-fit analysis of data points (Cricket Graph, Computer Associates) and Eadie-Hofstee transformation."}, "[1]": {"substrate": "O=CC[C@@H](O)[C@H](O)[C@H](O)CO", "test": "cells, lysate or membranes", "conditions": "Eadie-Hofstee analysis, pH 7.5"}, "[2]": {"conditions": "250 μM [3H]2-DOG, 30 min at 22° C."}},
  "note": "Substitutions are numbered along the chain they refer to. Entries after “also recorded” stand apart in the source; their conditions may differ.",
  "data": [
    {"molecule": "O=C(CO)[C@@H](O)[C@H](O)[C@H](O)CO", "note": "[fructose]", "values": [
      {"measurement": "effect of competitors on [3H]2-DOG uptake", "setting": "human GLUT10; [2]", "value": "did not inhibit"}
    ]},
    {"molecule": "O=C[C@H](O)[C@@H](O)[C@H](O)[C@H](O)CO", "note": "[D-glucose]", "values": [
      {"measurement": "effect of competitors on [3H]2-DOG uptake", "setting": "human GLUT10; [2]", "value": "effectively competed"}
    ]},
    {"molecule": "O=CC[C@@H](O)[C@H](O)[C@H](O)CO", "note": "[2-DOG, 2-deoxy-D-glucose]", "values": [
      {"measurement": "2-DOG uptake over the water-injected controls", "setting": "human GLUT10; 25 μM 2-DOG, 30 min at 22° C., 3 days after injection of 30 ng GLUT10 RNA", "value": 5, "unit": "fold"},
      {"measurement": "effect of competitors on [3H]2-DOG uptake", "setting": "human GLUT10; [2]", "value": "effectively competed"},
      {"measurement": "Vmax of 2-DOG uptake", "setting": "human GLUT10; GLUT10 RNA-injected oocytes, 30 min at 22° C., Eadie-Hofstee analysis", "value": 0.85, "unit": "pmol oocyte^−1 30 min^−1"},
      {"measurement": "Km", "setting": "human GLUT10; read-out: apparent Km for 2-DOG transport, GLUT10 mRNA-injected oocytes, 30 min, Eadie-Hofstee analysis", "value": "~300", "unit": "µM"}
    ]},
    {"molecule": "O=C(CCc1ccc(O)cc1)c1c(O)cc(O)cc1O", "note": "[phloretin]", "values": [
      {"measurement": "effect of phloretin on 2-DOG uptake", "setting": "human GLUT10; 100 μM phloretin, 25 μM [3H]2-DOG, 30 min at 22° C.", "value": "inhibited"}
    ]},
    {"molecule": "O=C[C@H](O)[C@@H](O)[C@@H](O)[C@H](O)CO", "note": "[D-galactose]", "values": [
      {"measurement": "effect of competitors on [3H]2-DOG uptake", "setting": "human GLUT10; [2]", "value": "inhibited 2-DOG uptake but less effectively; also recorded: competed"}
    ]},
    {"molecule": "insulin", "values": [
      {"measurement": "insulin stimulation of 2-DOG uptake activity", "setting": "GLUT10 A206T", "value": "not stimulated"},
      {"measurement": "insulin stimulation of glucose transport", "setting": "human GLUT10; pre-incubation with insulin, oocytes injected with GLUT10 mRNA", "value": "approximately 2 fold"},
      {"measurement": "insulin stimulation of 2-DOG transport", "setting": "human GLUT10; wild type GLUT10, pre-incubation with 100 μM insulin for 30 min, 250 μM [3H]2-DOG", "value": "stimulated"},
      {"measurement": "insulin stimulation of 2-DOG uptake activity", "setting": "GLUT10 A28T", "value": "not stimulated"},
      {"measurement": "insulin stimulation of 2-DOG transport", "setting": "human GLUT4", "value": "stimulated"}
    ]},
    {"molecule": "B1", "values": [
      {"measurement": "Km", "setting": "[1]; other: GLUT10 RNA (30 ng) injected oocytes, 30 min at 22° C., corrected for water-injected background", "value": 280, "unit": "µM"},
      {"measurement": "Km", "setting": "[1]; other: GLUT10 mRNA-injected oocytes, 30 min, 22.0 °C", "value": 300, "unit": "µM"}
    ]}
  ]
}
